From patent publication US20260053932A1, “COMPOUNDS AND METHODS FOR THE TARGETED DEGRADATION OF ANDROGEN RECEPTOR AND ASSOCIATED METHODS OF USE” (Arvinas Operations, Inc., priority 2020, published 2026)

Tested on: androgen receptor (AR) in LNCaP and/or VCaP cells
Test: Androgen Receptor ELISA assay (AR degradation)
Format: cell-based
Conditions: LNCaP and/or VCaP cells; 5 hours incubation; media with R1881; read-out: DC50 Code* (degradation of AR ELISA)
Outline: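 VCaP cells grown ≥3 days, then treated 5 h with compound in media containing 1 nM R1881 (10× stock). Cells lysed and AR quantified by sandwich ELISA (mouse AR detection Ab, HRP anti-mouse, TMB). DC50 and Dmax derived from AR degradation.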

COc1cc(O[C@H]2CC[C@H](NC(=O)c3cnc(N4CCC(CN(C(C)C)[C@H]5CC[C@H](Oc6ccc7c(c6)CN(C6CCC(=O)NC6=O)C7=O)CC5)CC4)cn3)CC2)ccc1C#N (stereo partly shown) [Compound 19, N-((1r,4r)-4-(4-cyano-3-methoxyphenoxy)cyclohexyl)-5-(4-((((1r,4r)-4-((2-(2,6-dioxopiperidin-3-yl)-1-oxoisoindolin-5-yl)oxy)cyclohexyl) (isopropyl)amino)methyl)piperidin-1-yl)pyrazine-2-carboxamide]
DC50: < 1 nM

COc1cc(O[C@H]2CC[C@H](NC(=O)c3cnc(N4CC(CN(C(C)C)[C@H]5C[C@H](Oc6ccc7c(c6)C(=O)N(C6CCC(=O)NC6=O)C7=O)C5)C4)cn3)CC2)ccc1C#N (stereo partly shown) [Compound 20, N-((1r,4r)-4-(4-cyano-3-methoxyphenoxy)cyclohexyl)-5-(3-((((1r,3r)-3-((2-(2,6-dioxopiperidin-3-yl)-1,3-dioxoisoindolin-5-yl)oxy)cyclobutyl) (isopropyl)amino)methyl)azetidin-1-yl)pyrazine-2-carboxamide]
DC50: < 1 nM

N#Cc1ccc(O[C@H]2CC[C@H](NC(=O)c3cnc(N4CCC(CN(C5COC5)[C@H]5C[C@H](Oc6ccc7c(c6)CN(C6CCC(=O)NC6=O)C7=O)C5)CC4)cn3)CC2)cc1Cl (stereo partly shown) [Compound 21, N-((1r,4r)-4-(3-chloro-4-cyanophenoxy)cyclohexyl)-5-(4-((((1r,3r)-3-((2-(2,6-dioxopiperidin-3-yl)-1-oxoisoindolin-5-yl)oxy)cyclobutyl) (oxetan-3-yl)amino)methyl)piperidin-1-yl)pyrazine-2-carboxamide]
DC50: < 1 nM

COc1cc(O[C@H]2CC[C@H](NC(=O)c3cnc(N4CC(CN(C(C)C)[C@H]5CC[C@H](Oc6ccc7c(c6)C(=O)N(C6CCC(=O)NC6=O)C7=O)CC5)C4)cn3)CC2)ccc1C#N (stereo partly shown) [Compound 22, N-((1r,4r)-4-(4-cyano-3-methoxyphenoxy)cyclohexyl)-5-(3-((((1r,4r)-4-((2-(2,6-dioxopiperidin-3-yl)-1,3-dioxoisoindolin-5-yl)oxy)cyclohexyl) (isopropyl)amino)methyl)azetidin-1-yl)pyrazine-2-carboxamide]
DC50: < 1 nM

COc1cc(O[C@H]2C[C@H](N(CC3CCN(c4cnc(C(=O)N[C@H]5CC[C@H](Oc6cc(C)c(C#N)c(C)c6)CC5)cn4)CC3)C(C)=O)C2)cc2c1C(=O)N(C1CCC(=O)NC1=O)C2=O (stereo partly shown) [Compound 23, N-((1r,4r)-4-(4-cyano-3,5-dimethylphenoxy)cyclohexyl)-5-(4-((N-((1r,3r)-3-((2-(2,6-dioxopiperidin-3-yl)-7-methoxy-1,3-dioxoisoindolin-5-yl)oxy)cyclobutyl)acetamido)methyl)piperidin-1-yl)pyrazine-2-carboxamide]
DC50: < 1 nM

COCCN(CC1CCN(c2cnc(C(=O)N[C@H]3CC[C@H](Oc4ccc(C#N)c(Cl)c4)CC3)cn2)CC1)[C@H]1C[C@H](Oc2ccc3c(c2)C(=O)N(C2CCC(=O)NC2=O)C3)C1 (stereo partly shown) [Compound 24, N-((1r,4r)-4-(3-chloro-4-cyanophenoxy)cyclohexyl)-5-(4-((((1r,3r)-3-((2-(2,6-dioxopiperidin-3-yl)-3-oxoisoindolin-5-yl)oxy)cyclobutyl)(2-methoxyethyl)amino)methyl)piperidin-1-yl)pyrazine-2-carboxamide]
DC50: < 1 nM

Cc1cc(O[C@H]2CC[C@H](NC(=O)c3cnc(N4CCC(CN(C(C)C)[C@H]5C[C@H](Oc6ccc7c(c6)C(=O)N(C6CCC(=O)NC6=O)C7=O)C5)CC4)cn3)CC2)cc(C)c1C#N (stereo partly shown) [Compound 25, N-((1r,4r)-4-(4-cyano-3,5-dimethylphenoxy)cyclohexyl)-5-(4-((((1r,3r)-3-((2-(2,6-dioxopiperidin-3-yl)-1,3-dioxoisoindolin-5-yl)oxy)cyclobutyl) (isopropyl)amino)methyl)piperidin-1-yl)pyrazine-2-carboxamide]
DC50: < 1 nM

CC(C)N(CC1CCN(c2ncc(C(=O)N[C@H]3C(C)(C)[C@H](Oc4ccc(C#N)c(Cl)c4)C3(C)C)cn2)CC1)[C@H]1CC[C@H](Oc2ccc3c(c2)C(=O)N(C2CCC(=O)NC2=O)C3=O)CC1 (stereo partly shown) [Compound 26, N-((1r,3r)-3-(3-chloro-4-cyanophenoxy)-2,2,4,4-tetramethylcyclobutyl)-2-(4-((((1r,4r)-4-((2-(2,6-dioxopiperidin-3-yl)-1,3-dioxoisoindolin-5-yl)oxy)cyclohexyl) (isopropyl)amino)methyl)piperidin-1-yl)pyrimidine-5-carboxamide]
DC50: < 1 nM

COc1cc(O[C@H]2CC[C@H](NC(=O)c3cnc(N4CC5(CC(CN(C(C)C)[C@H]6C[C@H](Oc7ccc8c(c7)CN(C7CCC(=O)NC7=O)C8=O)C6)C5)C4)cn3)CC2)ccc1C#N (stereo partly shown) [Compound 27, N-((1r,4r)-4-(4-cyano-3-methoxyphenoxy)cyclohexyl)-5-(6-((((1r,3r)-3-((2-(2,6-dioxopiperidin-3-yl)-1-oxoisoindolin-5-yl)oxy)cyclobutyl) (isopropyl)amino)methyl)-2-azaspiro[3.3]heptan-2-yl)pyrazine-2-carboxamide]
DC50: < 1 nM

CCN(CC1CCN(c2cnc(C(=O)N[C@H]3CC[C@H](Oc4ccc(C#N)c(Cl)c4)CC3)cn2)CC1)[C@H]1C[C@H](Oc2ccc3c(c2)C(=O)N(C2CCC(=O)NC2=O)C3=O)C1 (stereo partly shown) [Compound 28, N-((1r,4r)-4-(3-chloro-4-cyanophenoxy)cyclohexyl)-5-(4-((((1r,3r)-3-((2-(2,6-dioxopiperidin-3-yl)-1,3-dioxoisoindolin-5-yl)oxy)cyclobutyl)(ethyl)amino)methyl)piperidin-1-yl)pyrazine-2-carboxamide]
DC50: < 1 nM

COc1cc(O[C@H]2CC[C@H](NC(=O)c3cnc(N4CCC(CN(C(C)=O)[C@H]5C[C@H](Oc6ccc7c(c6)C(=O)N(C6CCC(=O)NC6=O)C7=O)C5)CC4)cn3)CC2)ccc1C#N (stereo partly shown) [Compound 29, N-((1r,4r)-4-(4-cyano-3-methoxyphenoxy)cyclohexyl)-5-(4-((N-((1r,3r)-3-((2-(2,6-dioxopiperidin-3-yl)-1,3-dioxoisoindolin-5-yl)oxy)cyclobutyl)acetamido)methyl)piperidin-1-yl)pyrazine-2-carboxamide]
DC50: < 1 nM

N#Cc1ccc(O[C@H]2CC[C@H](NC(=O)c3cnc(N4CCC(CN(C5CCOCC5)[C@H]5C[C@H](Oc6ccc7c(c6)C(=O)N(C6CCC(=O)NC6=O)C7=O)C5)CC4)cn3)CC2)cc1Cl (stereo partly shown) [Compound 30, N-((1r,4r)-4-(3-chloro-4-cyanophenoxy)cyclohexyl)-5-(4-((((1r,3r)-3-((2-(2,6-dioxopiperidin-3-yl)-1,3-dioxoisoindolin-5-yl)oxy)cyclobutyl) (tetrahydro-2H-pyran-4-yl)amino)methyl)piperidin-1-yl)pyrazine-2-carboxamide]
DC50: < 1 nM

COc1cc(O[C@H]2CC[C@H](NC(=O)c3cnc(N4CCC(CN(C(C)C)[C@H]5CC[C@H](Oc6ccc7c(c6)C(=O)N(C6CCC(=O)NC6=O)C7=O)CC5)CC4)cn3)CC2)ccc1C#N (stereo partly shown) [Compound 31, N-((1r,4r)-4-(4-cyano-3-methoxyphenoxy)cyclohexyl)-5-(4-((((1r,4r)-4-((2-(2,6-dioxopiperidin-3-yl)-1,3-dioxoisoindolin-5-yl)oxy)cyclohexyl) (isopropyl)amino)methyl)piperidin-1-yl)pyrazine-2-carboxamide]
DC50: < 1 nM
